In BindingDB's records for patent US20250304537 (Repare Therapeutics, 2025):

Biological target: T1, Membrane-associated tyrosine- and threonine-specific cdc2-inhibitory kinase (Homo sapiens, UniProt Q99640)
T1 sequence (Q99640 whole entry): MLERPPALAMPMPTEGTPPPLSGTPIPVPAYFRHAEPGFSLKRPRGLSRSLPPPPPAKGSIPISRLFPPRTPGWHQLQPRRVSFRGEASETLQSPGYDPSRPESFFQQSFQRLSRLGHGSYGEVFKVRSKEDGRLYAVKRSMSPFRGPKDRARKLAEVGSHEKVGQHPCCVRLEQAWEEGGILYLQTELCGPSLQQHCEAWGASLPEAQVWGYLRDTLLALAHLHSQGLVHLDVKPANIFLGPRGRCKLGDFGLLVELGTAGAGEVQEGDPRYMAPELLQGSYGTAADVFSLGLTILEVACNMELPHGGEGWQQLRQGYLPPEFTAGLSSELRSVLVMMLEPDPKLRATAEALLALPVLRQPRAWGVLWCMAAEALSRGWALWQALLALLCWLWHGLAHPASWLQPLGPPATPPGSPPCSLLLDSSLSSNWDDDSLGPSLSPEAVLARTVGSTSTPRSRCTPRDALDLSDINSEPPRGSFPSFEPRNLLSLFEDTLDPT
Assay: Enzymatic Assay
Method: Detection of Myt1 kinase activity utilized a recombinant human Myt1 kinase assay measuring the hydrolysis of ATP using a commercially available ADP-Glo Assay (ADP-Glo™ Kinase Assay from Promega, 10 000 assays, #V9102). Briefly, 5 μL recombinant human Myt1 (full length PKMYT1 recombinant human protein expressed in insect cells from Thermo Fisher #A33387; ˜80% purity) was prepared in reaction buffer (70 mM HEPES, 3 mM MgCl2, 3 mM MnCl2, 50 μg/ml PEG 20000, 3 μM Na-orthovanadate, 1.2 mM DTT) and added to 384 well white polystyrene, flat bottom well, non-treated, microplate (Corning #3572). After this, 5 μL of compounds (diluted in reaction buffer to 0.5% DMSO) was added to the microplate and the plate was spun briefly and incubated at 22° C. for 15 minutes. Ultra-Pure Adenosine Triphosphate (ATP) solution (ADP-Glo kit from Promega) was diluted in reaction buffer and 5 μL was added to the microplate, spun down briefly and incubated for 60 minutes at 30° C. The final Myt1 enzyme concentration was 18 nM and the final ATP concentration was 10 μM. After the 60-minute incubation, 15 μL of ADP-Glo reagent was added and the plate was spun briefly and sealed and incubated in the dark for 40 minutes at 22° C. Following this, 30 μL of kinase detection reagent was added per well and the plate was spun briefly, sealed and incubated for 45-60 minutes at 22° C. in the dark. Luminescence was read using the Envision (250 ms integration). The IC50 and the % max inhibition were calculated for each inhibitor compound tested.

SMILES	IC50
Cc1ccc2[nH]ncc2c1-c1nc(-c2cccc(N3CCN(C)CC3)c2)nc(C(N)=O)c1N [US20250304537, Compound 132]	37 nM
Cc1ccc2[nH]ncc2c1-c1nc(-c2ccc3[nH]ncc3c2)nc(C(N)=O)c1N [US20250304537, Compound 130]	66 nM
Cc1ccc2[nH]ncc2c1-c1nc(-c2ccc(C#N)cc2)nc(C(N)=O)c1N [US20250304537, Compound 133]	39 nM
Cc1cc(-c2nc(C(N)=O)c(N)c(-c3c(C)ccc4[nH]ncc34)n2)ccn1 [US20250304537, Compound 136]	25 nM
Cc1ccc2[nH]ncc2c1-c1cc(-c2ccnc(OCC3(C#N)CC3)n2)nc(C(N)=O)c1N [US20250304537, Compound 324]	10 nM
Cc1ccc(O)c(C)c1-c1nc(-c2ccnnc2)cc(C(N)=O)c1N [US20250304537, Compound 77]	27 nM
CCc1ccc2[nH]ncc2c1-c1nc(-c2cccnc2)nc(C(N)=O)c1N [US20250304537, Compound 222]	> 2000 nM
COc1cc(-c2nc(C(N)=O)c(N)c(-c3c(C)ccc4[nH]ncc34)n2)ccn1 [US20250304537, Compound 135]	22 nM
CC(=O)N1CCN(c2nccc(-c3cc(-c4c(C)ccc5[nH]ncc45)c(N)c(C(N)=O)n3)n2)CC1 [US20250304537, Compound 215]	7 nM
Cc1ccc2[nH]ncc2c1-c1cc(-c2cccc(-c3ccccn3)n2)nc(C(N)=O)c1N [US20250304537, Compound 236]	46 nM
Cc1ccc2[nH]ncc2c1-c1nc(-c2ccnnc2)cc(C(N)=O)c1N [US20250304537, Compound 120]	329 nM
Cc1ccc2[nH]ncc2c1-c1cc(-c2ccnc(N[C@H]3CCOC[C@@H]3O)n2)nc(C(N)=O)c1N [US20250304537, Compound 368]	15 nM
NC(=O)c1nc(-c2ccnnc2)cc(-c2cccc3[nH]ncc23)c1N [US20250304537, Compound 69]	131 nM
Cc1ccc(O)cc1-c1nc(C2CCOCC2)nc(C(N)=O)c1N [US20250304537, Compound 44]	3180 nM
Cc1ccc2[nH]ncc2c1-c1cc(-c2ccnc(OCc3nccn3C)n2)nc(C(N)=O)c1N [US20250304537, Compound 301]	4 nM
Cc1ccc2[nH]ncc2c1-c1cc(-c2ccnc(OCc3ccco3)n2)nc(C(N)=O)c1N [US20250304537, Compound 213]	7 nM
Cc1ccc2[nH]ncc2c1-c1nc(-c2cccnc2O)nc(C(N)=O)c1N [US20250304537, Compound 598]	27 nM
Cc1ccc2[nH]ncc2c1-c1nc(-c2ccc(N3CCN(C)CC3)cc2)nc(C(N)=O)c1N [US20250304537, Compound 134]	142 nM
Cc1ccc2[nH]ncc2c1-c1cc(-c2ccnc(OCC(F)(F)F)n2)nc(C(N)=O)c1N [US20250304537, Compound 165]	586 nM
